For data set [1], the system named is human subjects diagnosed with fibromyalgia syndrome. Put plainly: Patient history of prior treatment of the fibromyalgia subjects (Examples 1-3). The following applies: for side effects of prior prescription analgesics / pain relief by prior prescription analgesics: codeine at high dose; for pain relief by prior prescription analgesics: at best; for pain relief by prior OTC analgesics: codeine at low dose.
Source text: (§1) Patient History of Prior Treatment: A patient history was taken. Prior treatments targeting pain relief were as follows.
Prior treatments targeting other symptoms included the following. The subject had taken tegaserod for irritable bowel syndrome. Additional prior therapies included sertraline for depression, and zolpidem for insomnia. The subject has also taken proclorperazine for dizziness.
Prior treatments targeting other symptoms included the following. The subject had taken tegaserod for irritable bowel syndrome. Additional prior therapies included sertraline for depression, and zolpidem for insomnia.
as §1
Prior treatments targeting other symptoms included the following. The subject had taken tegaserod for irritable bowel syndrome. Additional prior therapies included zolpidem, midazolam, zopiclone, and chlorpheniramine for insomnia.

Data set [2] shares this test system. Put plainly: Treatment of human subjects diagnosed with fibromyalgia with trimetazidine (Examples 1-4, clinical case reports). In kind it is in vivo. The procedure:
A person presented with long-standing complaints (15 years) of widespread pain—headaches, upper and lower back pain, neck pain, elbow and knee pain bilaterally, calf pain bilaterally and jaw pain. General non-specific symptoms were fatigue, symptoms of irritable bowel syndrome (constipation-type), insomnia, cognitive and memory impairment, morning stiffness, dizziness, irritability and depression.
Treatment Regime: The subject was administered trimetazidine (modified release formulation, Vastarel® MR), 35 mg orally, twice daily, originally for treatment of their cardiac condition.
Treatment Regime: The subject was administered trimetazidine (modified release formulation, Vastarel® MR), 35 mg orally, twice daily.
The following is a synopsis of the clinical response of each of eight (8) patients diagnosed with FMS, each of whom received treatment with trimetazidine MR (Vastarel® MR), 35 mg orally, twice daily, for a period of at least four (4) weeks.

The target of data set [3] is long-chain isoform of 3-ketoacyl coenzyme A thiolase (3KCT) (Homo sapiens, UniProt P55084). The note with it: thereby reducing fatty acid oxidation; Kantor et al., Circ Res 2000; cited from earlier work.
Chain of long-chain isoform of 3-ketoacyl coenzyme A thiolase (3KCT) (P55084 34-474): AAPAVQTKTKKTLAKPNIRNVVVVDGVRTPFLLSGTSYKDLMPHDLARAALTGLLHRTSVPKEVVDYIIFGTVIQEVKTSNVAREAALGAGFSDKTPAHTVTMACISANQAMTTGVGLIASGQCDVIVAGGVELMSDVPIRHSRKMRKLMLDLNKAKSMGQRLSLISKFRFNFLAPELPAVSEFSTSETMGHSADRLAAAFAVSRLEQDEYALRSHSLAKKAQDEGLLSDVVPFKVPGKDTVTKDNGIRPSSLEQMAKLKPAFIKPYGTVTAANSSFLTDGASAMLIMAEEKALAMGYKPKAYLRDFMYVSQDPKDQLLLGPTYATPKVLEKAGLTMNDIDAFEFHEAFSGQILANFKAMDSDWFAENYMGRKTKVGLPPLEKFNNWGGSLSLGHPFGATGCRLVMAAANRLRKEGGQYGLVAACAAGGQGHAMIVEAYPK
Chain of long-chain isoform of 3-ketoacyl coenzyme A thiolase (3KCT) (P40939 37-763 partner): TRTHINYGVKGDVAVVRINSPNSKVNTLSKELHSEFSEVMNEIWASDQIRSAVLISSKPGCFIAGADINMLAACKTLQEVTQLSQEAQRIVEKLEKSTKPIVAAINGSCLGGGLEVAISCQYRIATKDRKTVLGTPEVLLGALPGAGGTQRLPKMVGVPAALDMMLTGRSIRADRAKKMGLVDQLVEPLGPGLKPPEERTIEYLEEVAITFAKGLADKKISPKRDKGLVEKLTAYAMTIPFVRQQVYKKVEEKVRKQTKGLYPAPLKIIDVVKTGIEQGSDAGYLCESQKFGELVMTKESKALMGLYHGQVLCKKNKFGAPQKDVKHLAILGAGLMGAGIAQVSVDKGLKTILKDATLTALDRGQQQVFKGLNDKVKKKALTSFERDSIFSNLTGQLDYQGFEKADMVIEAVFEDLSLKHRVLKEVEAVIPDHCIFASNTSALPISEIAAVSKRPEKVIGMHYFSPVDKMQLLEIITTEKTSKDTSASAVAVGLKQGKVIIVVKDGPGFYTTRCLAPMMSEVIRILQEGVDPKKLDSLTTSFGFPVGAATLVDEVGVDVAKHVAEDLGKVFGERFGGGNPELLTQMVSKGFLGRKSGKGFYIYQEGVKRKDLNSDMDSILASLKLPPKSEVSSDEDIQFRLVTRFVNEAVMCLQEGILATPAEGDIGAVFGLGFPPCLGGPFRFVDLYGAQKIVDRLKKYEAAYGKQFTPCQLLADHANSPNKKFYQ
Where [4] appears, read: Examples 1-2, within 72 h (Ex. 1) or 24 h (Ex. 2) of starting 35 mg orally twice daily, patient-reported.
Where [5] appears, read: Examples 1-3, within 72 h (Ex. 1) or 24 h (Ex. 2, 3) of starting 35 mg orally twice daily, patient-reported.
Setting [6] is: Short Term i.e. within 72 hours, trimetazidine MR 35 mg orally twice daily, FMS patient, Example 4.
Where [7] appears, read: Short Term i.e. within 72 hours, trimetazidine MR 35 mg orally twice daily, FMS patients, Example 4.
Setting [8] is: after four (4) months of continuous use, 35 mg orally twice daily.
Where [9] appears, read: examination after at least four weeks of trimetazidine MR 35 mg orally twice daily.
Setting [10] is: examination after four weeks of trimetazidine MR 35 mg orally twice daily.

“Also recorded” adds a separate entry of the source. Bounds are passed on as bounds.

With `COc1cccc(C2(O)CCCCC2CN(C)C)c1` (centres unmarked) [tramadol], in data set [1], the “side effects of prior prescription analgesics” value (shortened to “side effects”) is recorded as “frequently accompanied by unpleasant side effects”; the “pain relief by prior prescription analgesics” value is “mild to moderate and very temporary relief”.

With `CC(=O)Nc1ccc(O)cc1` [paracetamol], in data set [1], the “pain relief by prior OTC analgesics” value is on record as “no pain relief whatsoever; also recorded: negligible pain relief”.

As to `COc1ccc(CN2CCNCC2)c(OC)c1OC` [trimetazidine, 1-(2,3,4-trimethyloxybenzyl)piperazine], the “time after commencing therapy at which benefits were first noticed” value in data set [2] (Example 1, 35 mg orally twice daily) is at most 24 h. Moreover, the level of irritability result in data set [2] (Example 1, within 72 hours of starting 35 mg orally twice daily, patient-reported) is listed as “markedly reduced”. Also, in data set [2] (setting [4]), the clarity of thoughts entry is reported as “markedly increased”; the “short and long term memory” value is on record as “improvement”. In data set [2] (setting [5]), the energy levels result is on record as “very significantly increased”, the mood entry is reported as “very improved”, the “regularity of bowel habits” value is recorded as “markedly improved” and the sleep patterns result is given as “very significantly improved”. Also, in data set [2] (Examples 1-3, within 72 h (Ex. 1) or 24 h (Ex. 2, 3) of starting treatment), the “residual pain after reduction of widespread pain” value is listed as “minimal residual pain reported at the left medial knee; also recorded: minimal residual pain reported at the left hip; also recorded: residual mild headache”. In data set [2] (Medium/Long Term, after five (5) or four (4) weeks of daily use), the sense of well-being result is on record as “increased sense of”. Moreover, in data set [2] (Medium/Long Term, after five (5) weeks of daily use, 35 mg orally twice daily, patient-reported), the “sustained improvement of all symptoms” value was “dramatic 95%”. In data set [2] (Medium/Long Term, after four (4) weeks of daily use), the energy levels entry was “sustained increase”. Moreover, in data set [2] (Medium/Long Term, after nine (9) weeks of daily use, 35 mg orally twice daily, patient-reported), the “sustained improvement of symptoms” value is on record as 90% sustained. Further, the “sustained improvement of symptoms” value in data set [2] (Medium/Long Term, after seven (7) weeks of daily use, 35 mg orally twice daily, patient-reported) is on record as “dramatic 95%”. Also, in data set [2] (Medium/Long Term, after six (6) weeks of daily use, 35 mg orally twice daily, patient-reported), the “sustained improvement of symptoms” value is on record as “(95%) sustained”. Further, in data set [2] (setting [6]), the “Chest Pain” value is given as “Absence of Chest”; the Memory result was “Improved Memory”; the Nausea result was “Absence of Nausea”; the “Nausea and Vomiting” value was “Absence of Nausea”. Besides, in data set [2] (setting [6]), the nervousness result was “No Nervousness”; the “reduction in IBS and Acid Reflux Symptoms” value worked out at 90% reduction in; the reduction in irritability turned out to be 90% reduction in; the “reduction in severity of Pre-Menstrual Cramps” value was determined as 70% reduction in. In data set [2] (setting [6]), the “reduction in symptoms of Irritable Bowel Syndrome” value was 90% reduction in and the “symptoms of Irritable Bowel Syndrome” value is “Markedly reduced”. Besides, in data set [2] (setting [7]), the “alertness and clarity of thinking” value is reported as “Increased alertness”; the dizziness/dizzy spells entry was “Infrequent dizzy; also recorded: Absence of”; the “energy (feeling)” value is reported as “Energetic feeling”; the “improved mood and concentration” value is listed as “Significantly”. In data set [2] (setting [7]), the “improved mood and memory” value is listed as “Significantly”; the “reduction in widespread pain and trigger point pain” value is reported as 90% reduction in; the sleep entry is on record as “Consistent restful”. For the same compound, in data set [2] (setting [8]), the “quality of life at follow-up” value is reported as “same marked improvement” and the “relapse of symptoms at follow-up” value is given as “no relapse”. Further, the “quality of life at follow-up” value in data set [2] (after six (6) months of continuous use, 35 mg orally twice daily) is on record as “same marked improvement”. Moreover, in data set [2] (after six (6) months of continuous use, in reaction to stress or infections), the “pain at trigger points at follow-up” value is recorded as “infrequent episodes of pain”. For the same compound, in data set [2] (setting [9]), the “EXAMINATION FINDINGS: affect” value is recorded as “markedly improved” and the “EXAMINATION FINDINGS: resolution of trigger point tenderness” value is listed as “Sustained”. For the same compound, in data set [2] (setting [10]), the “EXAMINATION FINDINGS: affect and energy levels” value was “markedly improved”; the “EXAMINATION FINDINGS: improvement in physical appearance” value is given as “obvious marked”. Besides, the “EXAMINATION FINDINGS: improved energy levels” value in data set [2] (examination after ten weeks of trimetazidine MR 35 mg orally twice daily) is recorded as “Markedly”. The “improvement in all symptoms and signs of fibromyalgia” value in data set [2] (within 24 hours of starting treatment, 35 mg orally twice daily) is reported as “vast improvement”. For the same compound, the “reduction in widespread pain” value in data set [2] (within 24 hours of starting treatment, trimetazidine MR 35 mg orally twice daily, FMS patient, patient-reported) came out at 95%. Besides, the “improvement in all symptoms and signs of fibromyalgia” value in data set [2] (within 72 hours of starting treatment, 35 mg orally twice daily) is reported as “vast improvement”. The “reduction in widespread pain” value in data set [2] (within 72 hours of starting treatment, trimetazidine MR (Vastarel MR) 35 mg orally twice daily, FMS patient, patient-reported) was found to be 90%. Moreover, in data set [2] (within 72 hours of starting treatment, trimetazidine MR (Vastarel MR) 35 mg orally twice daily, FMS patient, patient-reported, listed as Trimetazidine), the “reduction in widespread pain” value amounted to 90% reduction in. Further, the “effect on long-chain 3-ketoacyl coenzyme A thiolase (3KCT)” value in data set [3] is reported as “inhibits”.

Regarding `CCOC(=O)C1(c2ccccc2)CCN(C)CC1` [meperidine], in data set [1], the “side effects” value is given as “frequently accompanied by unpleasant side effects”; the “pain relief by prior prescription analgesics” value is “mild to moderate and very temporary relief”.

With `COc1ccc2c3c1O[C@H]1[C@@H](O)C=C[C@H]4[C@@H](C2)N(C)CC[C@@]341` [codeine], in data set [1], the “pain relief by prior OTC analgesics” value is recorded as “no pain relief whatsoever; also recorded: negligible pain relief”; the “side effects” value is listed as “frequently accompanied by unpleasant side effects”; the “pain relief by prior prescription analgesics” value was “mild to moderate and very temporary relief”.

With `CCN(CC)CC(=O)Nc1c(C)cccc1C` [lidocaine], in data set [1] (injections repeated at 2 to 4 week intervals, extremely painful procedures), the “localized pain relief by prior trigger point injections” value is “best localized pain relief”.

The values above are taken from patent US20100286073A1, “COMPOUNDS AND METHODS FOR PHARMACEUTICAL USE” (priority 2007, published 2010).
